# Test results reported in patent US7943770B2, “Fused quinoline derivative and use thereof” (Takeda Pharmaceutical Company Limited, priority 2004, dated 2011).
# pIC50: −log10 of the molar value.
# Molecular target: T1, hNK2 receptor (Homo sapiens, UniProt P21452)
# T1 construct: host or cells: CHO cells
# T1 sequence (P21452 1-398): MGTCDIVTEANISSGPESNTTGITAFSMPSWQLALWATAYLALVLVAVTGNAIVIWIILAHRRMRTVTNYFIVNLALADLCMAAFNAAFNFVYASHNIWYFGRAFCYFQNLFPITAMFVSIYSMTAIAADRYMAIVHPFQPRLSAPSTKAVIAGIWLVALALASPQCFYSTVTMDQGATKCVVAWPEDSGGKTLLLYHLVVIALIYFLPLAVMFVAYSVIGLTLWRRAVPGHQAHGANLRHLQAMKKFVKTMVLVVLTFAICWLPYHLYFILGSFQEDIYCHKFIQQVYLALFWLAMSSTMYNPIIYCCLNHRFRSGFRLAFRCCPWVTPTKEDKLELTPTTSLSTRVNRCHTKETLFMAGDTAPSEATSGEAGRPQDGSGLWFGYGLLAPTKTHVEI
# Experiment: Radio-ligand ([125I]-NKA) receptor binding inhibitory activity using membrane fraction of hNK2 receptor-expressing CHO cell
# Details: membrane fraction of hNK2 receptor-expressing CHO cells, 25° C., 30 min
# Method: hNK2 receptor-expressing CHO cells (produced by EUROSCREEN) were cultured in HAM-F12 medium containing 400 μg/ml Geneticin, 100 U/mL penicillin, 100 μg/mL streptomycin and 10% inactivated serum. The medium was removed and adhered cells were washed with PBS, and PBS containing 5 mM EDTA was added to detach the cells from the flask. The cells were recovered by centrifugation, suspended in suspending buffer A (15 mM Tris-HCl (pH 7.5), 2 mM MgCl2, 0.3 mM EDTA, 1 mM EGTA), disrupted by POLYTRON homogenizer (manufactured by KINEMATICA) and centrifuged at 800×g for 10 min. The supernatant was recovered and ultracentrifuged at 100000×g for 25 min. The precipitated fraction was suspended in suspending buffer B (7.5 mM Tris-HCl (pH 7.5), 12.5 mM MgCl2, 0.3 mM EDTA, 1 mM, […], 250 mM Sucrose) and cryopreserved (at −80° C.) as a receptor specimen.
# An assay buffer (50 μl, 50 mM Tris-HCl (pH 7.4), 0.02% bovine serum albumin, 2 μg/mL chymostatin, 40 μg/mL bacitracin, 40 μg/mL APMSF, 3 mM MnCl2) was added to a 96 well microassay plate. Thereto was added a 20 μg/mL membrane specimen suspended in the assay buffer (50 μL). An assay buffer (50 μL) containing 2% dimethyl sulfoxide was added to examine the total binding, 4 unlabeled NKA (produced by Peptide Institute, Inc.) solution (50 μL) diluted with an assay buffer containing 2% dimethyl sulfoxide was added to examine non-specific binding, and a test compound diluted with an assay buffer (50 containing 2% dimethyl sulfoxide) was added to examine the binding inhibitory activity of the test compound. Furthermore, […] [^125I]-NKA (produced by Amersham Biosciences) solution (50 μL) was added to each well.
# After reaction at 25° C. for 30 min., the reaction was stopped by rapid filtration on a unifilter plate (GF/C) (manufactured by PerkinElmer) using a cell harvester (manufactured by PerkinElmer) and the cells were washed 5 times with 50 mM Tris-HCl (pH 7.4) buffer containing 0.02% bovine serum albumin (250 μL). The GF/C filter plate was dried and 20 μl, of MicroScinti-O (manufactured by PerkinElmer) was added and the radioactivity was measured in Topcount (manufactured by PerkinElmer). The GF/C filter plate, which had been immersed in 0.3% polyethyleneimine for one day, was used. Specific binding is shown by the value obtained by subtracting non-specific binding from the total binding. The binding inhibitory activity of the test compound is shown by the ratio of the value obtained by subtracting the measured value associated with the addition of the test compound from the total binding, to the value of the specific binding.
row,pIC50,Compound
1,> 8.00,"O=C(N[C@@H]1CCCC[C@@H]1C(=O)N1CC[C@@H]2[C@H](c3ccn[nH]3)Nc3ccccc3[C@@H]21)c1ccccc1 (relative stereo) [Example 56, N-((1R,2S)-2-{[(3aR*,4R*,9bR*)-4-(1H-Pyrazol-5-yl]-2,3,3a,4,5,9b-hexahydro-1H-pyrrolo[3,2-c]quinolin-1-yl]carbonyl}cyclohexyl)benzamide]"
2,> 8.00,"O=C(NC1(CC(=O)N2CC[C@@H]3[C@H](c4ccccc4)Nc4ccccc4[C@@H]32)CCCCC1)c1ccccc1 (relative stereo) [Example 312, N-(1-{2-oxo-2-[(3aR*,4R*,9bR*)-4-phenyl-2,3,3a,4,5,9b-hexahydro-1H-pyrrolo[3,2-c]quinolin-1-yl]ethyl}cyclohexyl)benzamide]"
3,> 8.00,"O=C(N[C@@H]1CCCC[C@@H]1C(=O)N1CC[C@@H]2C(C3CCOCC3)Nc3ccccc3[C@@H]21)c1ccccc1 (stereo in doubt) [Example 79, N-((1R,2S)-2-{[(3aR,4R,9bR)-4-Tetrahydro-2H-pyran-4-yl-2,3,3a,4,5,9b-hexahydro-1H-pyrrolo[3,2-c]quinolin-1-yl]carbonyl}cyclohexyl)benzamide]"
4,> 8.00,"O=C(N[C@@H]1CCCC[C@@H]1C(=O)N1CC[C@@H]2[C@H](c3ccccc3)Nc3ccccc3[C@@H]21)c1ccccc1 [Example 58, N-{(1R,2S)-2-[((3aR,4R,9bR)-4-Phenyl-2,3,3a,4,5,9b-hexahydro-1H-pyrrolo[3,2-c]quinolin-1-yl)carbonyl]cyclohexyl}benzamide]"
5,> 8.00,"O=C(N[C@@H]1CCCC[C@@H]1C(=O)N1CC[C@@H]2[C@H](C3CC3)Nc3ccccc3[C@@H]21)c1ccccc1 [Example 59, N-((1R,2S)-2-[(3aR,4S,9bR)-(4-Cyclopropyl-2,3,3a,4,5,9b-hexahydro-1H-pyrrolo[3,2-c]quinolin-1-yl)carbonyl]cyclohexyl)benzamide]"
6,> 9.00,"O=C(N[C@@H]1CCCC[C@@H]1C(=O)N1CC[C@@H]2[C@H](c3ccsc3)Nc3ccccc3[C@@H]21)c1ccccc1 [Example 60, N-((1R,2S)-2-{[(3aR,4R,9bR)-4-(3-Thienyl)-2,3,3a,4,5,9b-hexahydro-1H-pyrrolo[3,2-c]quinolin-1-yl]carbonyl}cyclohexyl)benzamide]"
7,> 8.00,"O=C(N[C@@H]1CCCC[C@@H]1C(=O)N1CC[C@@H]2[C@H](c3ccccc3)Nc3ccc(F)cc3[C@@H]21)c1ccccc1 [Example 61, N-((1R,2S)-2-{[(3aR,4R,9bR)-8-Fluoro-4-phenyl-2,3,3a,4,5,9b-hexahydro-1H-pyrrolo[3,2-c]quinolin-1-yl]carbonyl}cyclohexyl)benzamide]"
8,> 9.00,"CCC[C@@H]1Nc2ccccc2[C@H]2[C@@H]1CCN2C(=O)[C@H]1CCCC[C@H]1NC(=O)c1ccccc1 [Example 62, N-{(1R,2S)-2-[(3aR,4S,9bR)-(4-Propyl-2,3,3a,4,5,9b-hexahydro-1H-pyrrolo[3,2-c]quinolin-1-yl)carbonyl]cyclohexyl}benzamide]"
9,> 9.00,"O=C(N[C@@H]1CCCC[C@@H]1C(=O)N1CC[C@@H]2[C@H](c3ccoc3)Nc3ccccc3[C@@H]21)c1ccccc1 [Example 63, N-((1R,2S)-2-{[(3aR,4R,9bR)-4-(3-Furyl)-2,3,3a,4,5,9b-hexahydro-1H-pyrrolo[3,2-c]quinolin-1-yl]carbonyl}cyclohexyl)benzamide]"
10,> 9.00,"O=C(N[C@@H]1CCCC[C@@H]1C(=O)N1CC[C@@H]2[C@H](c3ccc[nH]3)Nc3ccccc3[C@@H]21)c1ccccc1 [Example 64, N-((1R,2S)-2-{[(3aR,4R,9bR)-4-(1H-Pyrrol-2-yl)-2,3,3a,4,5,9b-hexahydro-1H-pyrrolo[3,2-c]quinolin-1-yl]carbonyl}cyclohexyl)benzamide]"
11,> 8.00,"CC(C)C[C@@H]1Nc2ccccc2[C@H]2[C@@H]1CCN2C(=O)[C@H]1CCCC[C@H]1NC(=O)c1ccccc1 [Example 66, N-((1R,2S)-2-{[(3aR,4S,9bR)-4-Isobutyl-2,3,3a,4,5,9b-hexahydro-1H-pyrrolo[3,2-c]quinolin-1-yl]carbonyl}cyclohexyl)benzamide]"
12,> 8.00,"O=C(NCC[C@@H]1Nc2ccccc2[C@H]2[C@@H]1CCN2C(=O)[C@H]1CCCC[C@H]1NC(=O)c1ccccc1)OCc1ccccc1 [Example 68, Benzyl 2-((3aR,4S,9bR)-1-{[(1S,2R)-2-(benzoylamino)cyclohexyl]carbonyl}-2,3,3a,4,5,9b-hexahydro-1H-pyrrolo[3,2-c]quinolin-4-yl)ethylcarbate]"
13,> 8.00,"Cc1occc1[C@@H]1Nc2ccccc2[C@H]2[C@@H]1CCN2C(=O)[C@H]1CCCC[C@H]1NC(=O)c1ccccc1 [Example 75, N-((1R,2S)-2-{[(3aR,4R,9bR)-4-(2-Methyl-3-furyl)-2,3,3a,4,5,9b-hexahydro-1H-pyrrolo[3,2-c]quinolin-1-yl]carbonyl}cyclohexyl)benzamide]"
14,> 8.00,"O=C(N[C@@H]1CCCC[C@@H]1C(=O)N1CC[C@@H]2[C@H](c3cocn3)Nc3ccccc3[C@@H]21)c1ccccc1 [Example 76, N-((1R,2S)-2-{[(3aR,4R,9bR)-4-(1,3-Oxazol-4-yl)-2,3,3a,4,5,9b-hexahydro-1H-pyrrolo[3,2-c]quinolin-1-yl]carbonyl}cyclohexyl)benzamide]"
15,> 8.00,"O=C(N[C@@H]1CCCC[C@@H]1C(=O)N1CC[C@@H]2[C@H](c3cncs3)Nc3ccccc3[C@@H]21)c1ccccc1 [Example 78, N-((1R,2S)-2-{[(3aR,4R,9bR)-4-(1,3-Thiazol-5-yl)-2,3,3a,4,5,9b-hexahydro-1H-pyrrolo[3,2-c]quinolin-1-yl]carbonyl}cyclohexyl)benzamide]"
16,> 9.00,"O=C(N[C@@H]1CCCC[C@@H]1C(=O)N1CC[C@@H]2[C@H](c3ncc[nH]3)Nc3ccccc3[C@@H]21)c1ccccc1 [Example 81, N-((1R,2S)-2-{[(3aR,4R,9bR)-4-(1H-imidazol-2-yl)-2,3,3a,4,5,9b-hexahydro-1H-pyrrolo[3,2-c]quinolin-1-yl]carbonyl}cyclohexyl)benzamide]"
17,> 8.00,"Cn1ccnc1[C@@H]1Nc2ccccc2[C@H]2[C@@H]1CCN2C(=O)[C@H]1CCCC[C@H]1NC(=O)c1ccccc1 [Example 82, N-((1R,2S)-2-{[(3aR,4R,9bR)-4-(1-Methyl-1H-imidazol-2-yl)-2,3,3a,4,5,9b-hexahydro-1H-pyrrolo[3,2-c]quinolin-1-yl]carbonyl}cyclohexyl)benzamide]"
18,> 8.00,"C[C@]12CCN(C(=O)[C@H]3CCCC[C@H]3NC(=O)c3ccccc3)[C@H]1c1ccccc1N[C@H]2c1ccccc1 [Example 83, N-((1R,2S)-2-{[(3aR,4S,9bR)-3a-Methyl-4-phenyl-2,3,3a,4,5,9b-hexahydro-1H-pyrrolo[3,2-c]quinolin-1-yl]carbonyl}cyclohexyl)benzamide]"
19,> 8.00,"CC(=O)N[C@@H]1CCCC[C@@H]1C(=O)N1CC[C@@H]2[C@H](c3ccccc3)Nc3ccccc3[C@@H]21 [Example 85, N-((1R,25)-2-{[(3aR,4R,9bR)-4-Phenyl-2,3,3a,4,5,9b-hexahydro-1H-pyrrolo[3,2-c]quinolin-1-yl]carbonyl}cyclohexyl)acetamide]"
20,> 8.00,"CCC(=O)N[C@@H]1CCCC[C@@H]1C(=O)N1CC[C@@H]2[C@H](c3ccccc3)Nc3ccccc3[C@@H]21 [Example 86, N-((1R,2S)-2-{[(3aR,4R,9bR)-4-Phenyl-2,3,3a,4,5,9b-hexahydro-1H-pyrrolo[3,2-c]quinolin-1-yl]carbonyl}cyclohexyl)propanamide]"
21,> 8.00,"O=C(N[C@@H]1CCCC[C@@H]1C(=O)N1CC[C@@H]2[C@H](c3ccccc3)Nc3ccccc3[C@@H]21)c1ccc(C(F)(F)F)cc1 [Example 87, N-((1R,2S)-2-{[(3aR,4R,9bR)-4-Phenyl-2,3,3a,4,5,9b-hexahydro-1H-pyrrolo[3,2-c]quinolin-1-yl]carbonyl}cyclohexyl)-4-(trifluoromethyl)benzamide]"
